Reference: patent US20080090847A1, “HETEROCYCLIC COMPOUNDS AND USES THEREOF AS D-ALANYL-D-ALANINE LIGASE INHIBITORS” (PLIVA D.D., priority 2001, published 2008)
Read-outs that look alike come from different tables or passages of the source.

Experiments:
Type in all cases: biochemical
[1] = target: E. coli ligase (D-Ala-D-Ala ligase) (Escherichia coli, UniProt P07862); experiment: D-Ala-D-Ala ligase Ki determination (PK/LDH coupled assay), E. coli ligase
From the text: (§1) Inhibition of D-Ala-D-Ala ligase can be assayed for using the pyruvate kinase/lactate dehydrogenase (PK/LDH) assay described in Example 2, and as described in the literature (e.g., in Sarthy et al., Anal. Biochem., 254:288-290, 1997). In the bacterial cell wall synthesis process, the ligase catalyzes the conversion of adenosine triphosphate (ATP) to adenosine diphosphate (ADP) concurrent with the ligation of two D-alanine residues to form D-alanyl-D-alanine. PK then regenerates ATP from the ADP thus created simultaneously with the conversion of phosphopyruvate to pyruvate. LDH catalyzes the reduction of pyruvate to lactate by converting NADH to NAD^+. By monitoring the production rate of NAD^+ (e.g., using UV/Vis spectroscopy), D-Ala-D-Ala ligase activity can be ascertained.
(§2) The protein sequence for the enzyme D-ala-D-ala ligase has been determined in a variety of different bacterial species using standard techniques in biochemistry (see Table 5). The protein sequence from any species can be overexpressed in an appropriate host organism such as E. coli using standard molecular biology techniques. The ligase enzyme can be harvested, purified, and used in the above described assay for the determination of inhibitory activity.
(§3) The synthetic analogs of Example 1 were dissolved in dimethylsulfoxide (DMSO) at a concentration of 100 mM on the day of screening, using a vortex mixer and sonication if necessary for dissolution. The solutions were kept at room temperature until screening was completed.
(§4) A 10 mM NADH (Sigma) stock solution was prepared freshly on the day of screening by dissolving 32 μmol NADH in 3.2 ml double-distilled water. The NADH solution was kept on ice. Stock solutions containing 50 mM phosphoenolpyruvate (PEP; Sigma), 500 μM HERMES, 30 mM adenosine triphosphate (ATP; Sigma), 200 mM D-alanine (Sigma), and 4× core buffer (i.e., 400 mM Hepes, 40 mM magnesium chloride, and 40 mM potassium chloride), were also stored on ice. A stock solution of pyruvate kinase/lactate dehydrogenase (PK/LDH) was also obtained from Sigma.
(§5) Table of Final concentrations are dependent on the type of screening:
(§6) For each set of test compounds, two 96-well plates were used: an inhibitor plate and an enzyme plate. The test compounds correspond to rows A-G of the plates. Adenosine (Sigma) dissolved in DMSO, used as a control, corresponds to row H of each plate.
(§7) The enzyme solution was allowed to equilibrate to 25° C.
(§8) Dilutions were prepared in the inhibitor plate as follows: 50 μl DMSO was added to each well of columns 1-11, rows A-G, of the inhibitor plate. 50 μl DMSO were added to each well of columns 1-11, row H. 100 μl of the 100 mM test solutions were added to column 12, rows A-G (i.e., the first compound in row A, the second compound in row B, and so on). 100 μl of a 100 mM Adenosine solution was added to column 12, row H.
(§9) 50 μl of the test solution was transferred from column 12 in each row to column 11 of the a same row, mixing the solution with the DMSO. 50 μl of solution was then transferred from column 11 in each row to column 10 in the same row, 50 μl from column 10 was transferred to column 9, and so on, down to column 2. No solution was transferred to column 1. Multichannel pipettors were used in making the serial dilution.
(§10) 120 μl of the enzyme solution was added to each well of the enzyme plate.
(§11) The substrate solutions were brought to 25° C.
(§12) The analogs and enzymes were then incubated at 25° C. Since the reactions were initiated in columns, the analog addition is also in columns. At t=0 minutes, 5 μl analog was transferred from each well of columns 1-4 of the inhibitor plate to the corresponding well of the enzyme plate. At t=4 minutes, 5 μl analog was transferred from each well of columns 5-8 of the inhibitor plate to the corresponding well of the enzyme plate. At t=8 minutes, 5 μl analog was transferred from each well of columns 9-12 of the inhibitor plate to the corresponding well of the enzyme plate. The inhibitor plate was then frozen. […]

[2] = target: Staph ligase (D-Ala-D-Ala ligase) (Staphylococcus aureus, UniProt Q5HEB7); experiment: D-Ala-D-Ala ligase Ki determination (PK/LDH coupled assay), Staph ligase; settings: Ki/ATP, avg, read-out: Staph ligase Ki/ATP (uM) avg
Sequence of Staph ligase (D-Ala-D-Ala ligase) (Q5HEB7 whole entry): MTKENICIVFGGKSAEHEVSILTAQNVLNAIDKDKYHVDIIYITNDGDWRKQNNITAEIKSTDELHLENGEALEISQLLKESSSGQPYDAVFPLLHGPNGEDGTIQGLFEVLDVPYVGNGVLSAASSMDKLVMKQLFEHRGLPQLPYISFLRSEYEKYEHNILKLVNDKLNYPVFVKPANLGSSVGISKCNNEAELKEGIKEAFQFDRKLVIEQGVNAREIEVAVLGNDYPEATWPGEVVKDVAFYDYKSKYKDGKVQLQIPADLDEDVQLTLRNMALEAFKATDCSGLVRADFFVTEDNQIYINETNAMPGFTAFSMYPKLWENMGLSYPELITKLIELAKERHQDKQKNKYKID
From the text: as §1, §2, §3, §4, §5, §6, §7, §8, §9, §10, §11, §12

[3] = target: H. Influenzae ligase (D-Ala-D-Ala ligase) (Haemophilus influenzae, UniProt P44405); experiment: D-Ala-D-Ala ligase Ki determination (PK/LDH coupled assay), H. influenzae ligase; settings: Ki/ATP, avg, read-out: H. Influenzae ligase Ki/ATP (uM) avg
Sequence of H. Influenzae ligase (D-Ala-D-Ala ligase) (P44405 whole entry): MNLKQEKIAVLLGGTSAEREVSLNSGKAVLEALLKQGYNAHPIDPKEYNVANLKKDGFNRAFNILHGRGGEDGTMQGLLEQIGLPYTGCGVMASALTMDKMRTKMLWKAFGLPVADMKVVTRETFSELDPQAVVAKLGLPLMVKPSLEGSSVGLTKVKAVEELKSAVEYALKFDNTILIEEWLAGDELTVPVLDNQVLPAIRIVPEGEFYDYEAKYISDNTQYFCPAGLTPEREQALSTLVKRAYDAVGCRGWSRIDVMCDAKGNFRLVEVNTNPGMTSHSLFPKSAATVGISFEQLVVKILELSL
From the text: as §1, §2, §3, §4, §5, §6, §7, §8, §9, §10, §11, §12

[4] = target: T1, Strep ligase (D-Ala-D-Ala ligase) (Streptococcus pneumoniae serotype 4, UniProt P0CB57); experiment: D-Ala-D-Ala ligase Ki determination (PK/LDH coupled assay), Strep ligase; settings: Ki/ATP, avg, read-out: Strep ligase Ki/ATP (uM) avg
T1 sequence (P0CB57 1-347): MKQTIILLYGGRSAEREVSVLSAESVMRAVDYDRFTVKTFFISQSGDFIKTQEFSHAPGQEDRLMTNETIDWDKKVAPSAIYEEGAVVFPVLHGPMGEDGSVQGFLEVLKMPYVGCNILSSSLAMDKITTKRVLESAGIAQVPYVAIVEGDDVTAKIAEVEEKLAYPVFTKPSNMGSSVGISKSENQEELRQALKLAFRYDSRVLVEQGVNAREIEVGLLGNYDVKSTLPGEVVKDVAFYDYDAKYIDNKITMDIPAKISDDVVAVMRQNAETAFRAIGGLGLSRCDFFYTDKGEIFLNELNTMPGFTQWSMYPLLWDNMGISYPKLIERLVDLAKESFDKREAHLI
From the text: as §1, §2, §3, §4, §5, §6, §7, §8, §9, §10, §11, §12

[5] = target: T2, 4 ligases in the panel (D-Ala-D-Ala ligase); experiment: Ligase panel statements (ligases not individually named); settings: 3 of the 4 ligases; read-out: Ki's against 3 of the 4 ligases in the panel
T2 construct: rows headed: Ki's against 3 of the 4 ligases in the panel; other: text b65; 3 of the 4 ligases
From the text: as §1, §2, §3
(§13) A 10 mM NADH (Sigma) stock solution was prepared freshly on the day of screening by dissolving 32 μmol NADH in 3.2 ml double-distilled water. The NADH solution was kept on ice. […]
(§14) Plots of reaction rates vs. inhibitor concentration were generated using Kaleidograph®, and Ki values were determined after the data was fitted to the proper equation.

[6] = test system: T3, 4 ligases in the panel (D-Ala-D-Ala ligase); experiment: as above
T3 construct: rows headed: ligase panel activity (in words); other: text b65
From the text: as §1, §2, §3, §13, §14

[7] = E. coli ligase Ki/ATP (uM) avg, Table 3, Ki/ATP, avg
[8] = E. coli ligase Ki/ATP (uM) avg, Table 5, Ki/ATP, avg

Compound	Ki [1, 7]	Ki ([2]; Table 3)	Ki ([3]; Table 3)	Ki ([4]; Table 3)	Ki [5]	ligase panel activity (in words) [6]	Ki [1, 8]	Ki ([1]; Ki against the ligase isolated from E. coli)	Ki ([2]; Table 5)	Ki ([3]; Table 5)	Ki ([4]; Table 5)
CCOc1ccc2ccccc2c1CN(CCC(=O)NCc1cccc(CN)c1)c1ncc2c(N)nc(N)nc2n1	5.3 µM	0.9 µM	0.4 µM	0.9 µM	< 1000 nM						
CCOc1ccc2ccccc2c1CN(CCC(=O)NCC(=N)N)c1ncc2c(N)nc(N)nc2n1	1 µM	6.3 µM	0.6 µM	1.4 µM		activity similar to that of the first compound					
CCOc1ccc2ccccc2c1CN(CCC(=O)NCc1ccc(N)cc1)c1ncc2c(N)nc(N)nc2n1	8.7 µM	1.2 µM	1.6 µM	1.6 µM		potent against three ligase species					
CCOc1ccc2ccccc2c1CN(CCCCN)c1ncc2c(N)nc(N)nc2n1 [N7-(4-Amino-butyl)-N-7-(2-ethoxynaphthalen-1-ylmethyl)-pyrimido[4,5-d]pyrimidine-2,4,7-triamine]							0.105 µM	0.102 µM	15 µM	0.52 µM	4.5 µM
CC(c1cccc2ccccc12)N(CCCCN)c1ncc2c(N)nc(N)nc2n1 (stereo not drawn) [drawing 55]							0.135 µM		32 µM	4.2 µM	23.1 µM
